Laboratory results published in US20230053540A1, “TREATMENT OF LIVER INJURY” (Massachusetts Institute of Technology, priority 2019, published 2023).

Columns and labels:
[1] = system: mouse liver; assay: APAP acute liver injury in mice, histology/IHC (TUNEL, PCNA); type: in vivo; details: 300 mg/kg APAP i.p.
Experimental: Mice were then used for isolation of primary hepatic cells for single cell RNA-sequencing or tissue harvest for further downstream analysis.
A portion of liver tissue was fixed in 10% neutral buffered formalin for 48 hrs and further processed to obtain paraffin blocks and 5 μm thick sections. A portion of liver tissue was frozen in optimal cutting temperature (OCT) medium and used to obtain 10 μm fresh frozen sections.
Histology was performed by the histology core at Beth Israel Deaconess Medical Center using standard procedures and automated workflow. Samples were processed and embedded following fixation in 10% neutral buffered formalin for 48 hrs. Samples were embedded in paraffin and sectioned at […]. Immunohistochemistry was performed on a Leica autostainer (Leica Biosystems) with enzyme treatment (1:1000) using standard protocols. The antibody used for assessment of cell proliferation was PCNA (Cell Signaling, Cat. 13110, 1:800), and cell death was ApopTag Peroxidase In Situ Apoptosis Detection Kit (Millipore, Cat. #S7100). Macrophages were stained using the anti-F4/80 (Cell Signaling, Cat. 70076, 1:500). Sections were then counterstained with hematoxylin, dehydrated, and film cover slipped. Four representative images were captured per slide. TUNEL-positive area, PCNA-positive cells, and F4/80-positive cells were measured and averaged across the four images for each sample using Fiji.

[2] = system: hepatocytes; assay: Gene set analysis (piano) of composite DEG, APAP vs untreated; set-up: species or system mouse
Description: Shared and unique by injury model gene lists were assembled by combining DE results across all time points for each injury. Applicants ran differential expression using Wilcox test in the FindAllMarkers Seurat function between each treatment condition (A6, A24, A48, A96, PH3, PH48, PH120) individually and untreated (UT). […] A small number of genes were up at one time point, but down at another.
Applicants ran pathway analysis on the composite DE results using the piano R package. Reference gene sets were downloaded from MSigDB (Broad Institute). Applicants used geneSetStat=“fisher”, adjMethod=“fdr”, and signifMethod=“geneSampling”. Applicants then parsed the results to identify shared and unique reference gene sets for each injury. Any reference gene set with a q-value greater than 0.05 was discarded as insignificant. […] Selected reference gene set −log(q) are plotted in FIG. 20.

## CC(=O)Nc1ccc(O)cc1 [APAP, acetaminophen]
[1]; 6 hrs post-APAP (A6)
  histological analysis of liver: pericentral necrosis
[1]; 24 hrs post-APAP (A24)
  histology of liver: persistent pericentral necrosis
[1]; PH ~70%
  total cell loss (liver cell mass) after APAP exposure: ~10%
[2]
  anti-oxidant response by gene set analysis (GSA): substantial anti-oxidant response
